# Measurements taken from article PMC7873251, “CXCR7 ameliorates myocardial infarction as a β-arrestin-biased receptor” (Scientific Reports, 2021).
# Entries after “also recorded” stand apart in the source; their conditions may differ.
# Key:
# [1] = tested on: adrenergic receptors; details: cited from earlier work
# Source text: (§1) There are many seven-transmembrane receptors (7TMRs), such as adrenergic receptors and angiotensin II receptors, in the heart, and they play various critical roles in cardiac function and morphology[1],[2]. […] The roles of ACKRs are largely unknown, and only ACKR3, also known as CXC chemokine receptor 7 (CXCR7), has be ...
# [2] = tested on: heart failure patients; details: cited from earlier work
# Source text: as §1
# [3] = target: T1, human CXCR7 (Homo sapiens, UniProt P25106); experiment: β-arrestin recruitment assay of CXCR7 (luminescence, HEK293); type: cell-based; details: HEK293 cells transfected with human β-arrestin-2-ω and human CXCR7-α, 37 °C for 90 min, then Gal-Screen 25 °C 90 min, n = 3 independent, read-out: EC50 for coupling of CXCR7 with β-arrestin (β-arrestin recruitment)
# T1 construct: expressed in transfected cells; host or cells: HEK293 cells (ATCC CRL-11268)
# Experimental: HEK293 cells (ATCC CRL-11268) were used for the β-arrestin recruitment assay, as previously described[52]. In brief, HEK293 cells were transfected with human β-arrestin-2-ω and human CXCR7-α. […] Luminescence was measured in an ARVO X3 plate reader (PerkinElmer, Waltham, MA, USA).
# [4] = tested on: ERK; experiment: ERK phosphorylation (pERK/tERK immunoblot) in neonatal rat cardiomyocytes (NRCMs); type: cell-based, rat (Wistar); details: 30-min pretreatment with barbadin (50 M [sic]), then 10 min TC14012 (printed 3 M), n = 4
# Experimental: NRCMs and neonatal rat fibroblasts were prepared from 1-day-old Wistar rats (Takasugi Experimental Animal Supply Co., Saitama, Japan), as previously described. Briefly, cardiac cells were dispersed by digestion with collagenase type II (Worthington Biochemical, Lakewood, NJ, USA) and incubated at 37 °C for 80 min to divide the supernatant cells, which are rich in cardiomyocytes, and the attached cells, which are rich in cardiac fibroblasts. The supernatant NRCMs were cultured on gelatin-coated dishes at 37 °C in Dulbecco’s modified Eagle’s medium (DMEM; Nacalai Tesque, Kyoto, Japan) supplemented with 10% fetal calf serum for 36 h and confirmed on the basis of beating activity. After 12 h of starvation, the NRCMs were treated with TC14012 (Tocris Bioscience, Bristol, UK). Attached cells rich in cardiac fibroblasts were subcultured three times to increase their purity. We added vehicle (DMSO) or barbadin (MedChemExpress, New Jersey, USA) 30 min before stimulation.
# Western blotting was performed as previously described. […] Signals were detected with the Pierce ECL Prime system (GE Healthcare) in a LAS4000 instrument (GE Healthcare). Band densities were analyzed using the ImageJ software (National Institutes of Health, Bethesda, MD, USA).
# [5] = tested on: CC chemokine receptor 2-positive macrophages; details: pressure-overload heart failure model; cited from earlier work
# Source text: (§2) Recently, the importance of chemokines and their receptors in cardiovascular diseases has been pointed out.
# [6] = tested on: ERK (via rat CXCR7 expression plasmid); experiment: ERK phosphorylation (pERK/tERK immunoblot) in CXCR7-transfected HEK293 cells; type: cell-based, HEK293 cells (human embryonic kidney); details: CXCL12 100 nM
# Experimental: HEK293 cells (ATCC CRL-11268) were used for the β-arrestin recruitment assay, as previously described. In brief, HEK293 cells were transfected with human β-arrestin-2-ω and human CXCR7-α. […] Luminescence was measured in an ARVO X3 plate reader (PerkinElmer, Waltham, MA, USA). In addition, HEK293 cells were transfected with a rat CXCR7 expression plasmid using Lipofectamine 3000 (Thermo Fisher Scientific). The CXCR7 expression plasmid was synthesized by amplifying a rat Cxcr7 mRNA sequence (RefSeq: NM_053352.1) with a FLAG tag (forward primer: 5′-[…]-3′, reverse primer: 5′-[…]-3′) from cDNA prepared from total RNA isolated from neonatal rat heart and inserting it in pShuttle-CMV (#16403, Addgene, Watertown, MA, USA). The cells were cultured for 36 h.
# Western blotting was performed as previously described. Tissues and cells were homogenized in ice-cold RIPA buffer containing protease inhibitor (cOmplete Protease Inhibitor Cocktail, Merck) and phosphatase inhibitor (PhosSTOP, Sigma). Supernatants were collected after centrifugation and mixed with an equal amount of loading buffer (125 mM Tris–HCl pH 6.8, 30% glycerol, 10% SDS, and 0.6 M DTT). […] Signals were detected with the Pierce ECL Prime system (GE Healthcare) in a LAS4000 instrument (GE Healthcare). Band densities were analyzed using the ImageJ software (National Institutes of Health, Bethesda, MD, USA).
# [7] = tested on: CXCR4; details: via CXCR4; cited from earlier work
# Source text: as §2
# [8] = tested on: type 1 angiotensin II receptor; details: cited from earlier work
# Source text: There are many seven-transmembrane receptors (7TMRs), such as adrenergic receptors and angiotensin II receptors, in the heart, and they play various critical roles in cardiac function and morphology[1],[2]. […] The roles of ACKRs are largely unknown, and only ACKR3, also known as CXC chemokine receptor 7 (CXCR7), has be ... || There are numerous reports on biased agonists. Biased agonism occurs when two ligands share one receptor, but transmit different signals. […] However, there are a few natural β-arrestin-biased agonists and very few 7TMRs that activate intracellular signaling only through β-arr ...
# [9] = tested on: cardiac hypertrophy; details: cited from earlier work
# Source text: There are numerous reports on biased agonists. Biased agonism occurs when two ligands share one receptor, but transmit different signals. […] However, there are a few natural β-arrestin-biased agonists and very few 7TMRs that activate intracellular signaling only through β-arr ...
# [10] = tested on: CC chemokine receptor-like 2 (CCRL2); details: cited from earlier work
# Source text: In this study, we focused on CXCR7 because of its abundant expression in the heart and its unique character as a 7TMR. […] As a 7TMR, the β1-adrenergic receptor plays critical roles in the heart[21],[22]; however, its expression level was tenfold lower than that of Cxcr7.
# T1 sequence (P25106 whole entry): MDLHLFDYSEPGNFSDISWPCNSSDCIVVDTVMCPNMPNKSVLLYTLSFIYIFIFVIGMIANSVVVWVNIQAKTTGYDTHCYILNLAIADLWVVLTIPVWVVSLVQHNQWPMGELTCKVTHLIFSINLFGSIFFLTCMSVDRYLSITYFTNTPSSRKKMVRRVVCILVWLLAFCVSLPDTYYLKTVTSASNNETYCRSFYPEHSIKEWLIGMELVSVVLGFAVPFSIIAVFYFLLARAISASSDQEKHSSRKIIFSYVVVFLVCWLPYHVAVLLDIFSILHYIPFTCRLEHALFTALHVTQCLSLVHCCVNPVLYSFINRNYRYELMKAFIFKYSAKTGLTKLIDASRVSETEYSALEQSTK
# T1 sequence (P32121 whole entry partner): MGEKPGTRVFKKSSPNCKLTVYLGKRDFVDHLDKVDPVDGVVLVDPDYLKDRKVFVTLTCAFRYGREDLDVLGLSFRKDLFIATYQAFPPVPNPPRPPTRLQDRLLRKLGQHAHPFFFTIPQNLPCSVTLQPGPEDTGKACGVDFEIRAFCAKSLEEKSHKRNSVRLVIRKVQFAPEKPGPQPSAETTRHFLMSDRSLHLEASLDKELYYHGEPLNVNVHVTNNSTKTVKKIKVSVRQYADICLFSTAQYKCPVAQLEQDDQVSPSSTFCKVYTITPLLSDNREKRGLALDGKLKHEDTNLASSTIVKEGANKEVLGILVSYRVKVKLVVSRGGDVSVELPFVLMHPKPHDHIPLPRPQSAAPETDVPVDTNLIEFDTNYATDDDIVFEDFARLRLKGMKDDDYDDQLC
compound,measurement,setting,value
COc1ccccc1OCCNCC(O)COc1cccc2[nH]c3ccccc3c12 (centres unmarked) [carvedilol],adrenergic receptor blockade and β-arrestin signaling,[1],"not only blocks adrenergic receptors, but also activates cardioprotective signals, including ERK, through β-arrestin"
same,effectiveness in heart failure patients,[2],very effective for the treatment of heart failure patients
N=C(N)NCCC[C@H](NC(=O)[C@@H]1CSSC[C@H](NC(=O)[C@H](Cc2ccc3ccccc3c2)NC(=O)[C@H](CCCNC(=N)N)NC(=O)[C@@H](N)CCCNC(=N)N)C(=O)N[C@@H](Cc2ccc(O)cc2)C(=O)N[C@@H](CCCNC(N)=O)C(=O)N[C@@H](CCCCN)C(=O)N[C@H](CCCNC(N)=O)C(=O)N2CCC[C@H]2C(=O)N[C@@H](Cc2ccc(O)cc2)C(=O)N[C@@H](CCCNC(=N)N)C(=O)N[C@@H](CCCNC(N)=O)C(=O)N1)C(N)=O [TC14012],EC50,[3],47.4 nM
Nn1cnc2scc(-c3ccc(Cc4ccccc4)cc3)c2c1=O [barbadin],inhibition of TC14012-induced ERK activation,[4],abolished TC14012-induced ERK activation; also recorded: completely suppressed
CC chemokine ligand 2: chemokine that induced accumulation of CC chemokine receptor 2-positive macrophages,accumulation of CCR2-positive macrophages,[5],induced the accumulation of CC chemokine receptor 2-positive macrophages
CXCL12: a natural ligand of CXCR4 and CXCR7,time of peak ERK activity after stimulation,"[6]; HEK293 cells with CXCR7 expression plasmid, n = 4",5 min
same,ERK activation (pERK/tERK),"[6]; HEK293 cells, rat CXCR7 expression plasmid (various amounts), n = 3",activated ERK in a CXCR7 expression plasmid-dose-dependent manner
same,protection of the heart from hypoxia,[7],protects the heart from hypoxia
angiotensin-(1-7): a metabolite of angiotensin II,G protein versus β-arrestin activation compared with angiotensin II,[8],"binds to type 1 angiotensin II receptor, but fails to activate G proteins, and selectively promotes β-arrestin activation compared with angiotensin II"
same,cardiac hypertrophy,[9],attenuates cardiac hypertrophy
chemerin: ligand of CCRL2,binding to CCRL2,[10],"it does not bind to chemokines, but to chemerin"
